One assay has as its system mouse 3T3 cells. Description: ^3H-thymidine incorporation into mouse 3T3 cells. The format is cell-based. How it is done: Assay 2: Increase in Cell Number of Mouse 3T3 Cells
The activity of the IGF mutant was also measured in a bioassay for the activity of IGF-I on DNA synthesis and cell replication. In this assay mouse 3T3 cells are cultured, and the IGF mutant or IGF-I is added, followed by tritiated ^3H-thymidine. The amount of ^3H-thymidine incorporated is a measure of the replication of DNA and thus of cell replication.
(In general: Uptake of a labelled nucleoside into DNA is a usual measure of proliferation.)

A further assay deals with dwarf rats. Description: Long-term administration to GH-deficient dwarf (dw/dw) rats. It counts as in vivo, rat. To be noted: for retroperitoneal fat depot weight: at sacrifice; for AST / BUN / CK / Creatinine / Glucose / Insulin: serum at sacrifice, Means ± SEM. The source says:
Young female dwarf rats (11-12 wk of age, 115-140 g) were bred by homozygous mating (Charles Rivers Laboratories) and delivered to the Genentech Animal House where they were housed five per cage on polystyrene chips and fed a standard animal chow and water ad libitum, and kept in a room of constant humidity and with controlled temperature and lighting. The animals were weighed, and based on uniformity of body weight, 37 of the animals were selected and randomized into treatment groups and cages to give six treatment groups of equal initial body weights (approximately 120 g).
The study consisted of six groups of rats with six or seven rats per group.
The mutant (Leu^24,Ala^31)hIGF-I and native sequence recombinant human IGF-I were administered by osmotic minipumps (ALZET 2001™, Alza, Palo Alto, Calif.) which were placed in a subcutaneous tunnel in the dorsal neck region while the rats were anesthetized with KETAMINE/XYLAZINE™ anesthesia. The pumps were filled with solutions so that the calculated daily dose was 120 μg per rat per day (1 mg/kg/day), assuming that the pump delivered as per the manufacturer's description (24 μl of solution per day).
Recombinant human GH (50 μg/day) was administered for eight days by twice daily sc injection, with each injection being of 25 μg in a volume of 100 μl.
Body weights were measured daily in the morning. After 8 days the animals were anesthetized using CO2 and exsanguinated by cardiac puncture. The remaining blood was allowed to clot and serum was separated and stored for further analysis.
Spleen, thymus, heart, liver, kidney, and perirenal fat were removed and weighed. The tibia was removed and fixed in neutral buffered formalin for histological measurement of epiphyseal plate width.
Serum chemistries were measured using a TECHNICON CHEM I PLUS™ analyzer. Serum insulin concentration was measured using an RIA kit supplied by Linco, Inc. To measure the IGF-I concentrations the serum was extracted using acid ethanol and the supernatant diluted to neutrality and assayed for IGF-I by RIA. The concentration of rat IGF-I in serum extract was measured by RIA using a kit from Diagnostic Systems Laboratories, Inc. Human IGF-I concentration was measured by RIA at Genentech, Inc.
Tibia were sectioned longitudinally, stained with TOLULENE BLUE™ stain and mounted on microscope slides. The tibial epiphyseal plate width was measured using an ocular micrometer attached to a microscope.
Data were analyzed statistically by analysis of variance using one-factor ANOVA followed by Duncan's Range Test.

The test system of assay [1] is Zucker Diabetic Fatty (ZDF) rats. Nature of the assay: Long-term administration to diabetic rats incl. glucose tolerance test. The settings on record: for change in blood glucose two hours following the glucose challenge: glucose tolerance test day 14, 2 g/kg ip, 150 μg tid. The format is in vivo, rat. The method, then:
Obese male Zucker Diabetic Fatty (ZDF) rats (6-7 weeks of age, 225-250 g, Genetic Models Inc., Indianapolis, Ind. 46268) were group housed (3/cage) in a room controlled for temperature and lighting and fed the pelleted rat diet specified by the breeders (Purina 5008, 6% fat breeder chow) and tap water ad libitum. After three days acclimation, a blood sample was obtained from the tail vein for measurement of blood glucose and insulin, which was measured by rat-specific RIA (Linco Research Inc., St. Charles, Mo.). Animals were randomized into four treatment groups and into cages to give groups balance so as to have equivalent initial blood glucose levels, insulin levels, and body weights.
The experiment consisted of four groups of rats with seven rats per group.
1.0 The mutant (Leu^24,Ala^31)hIGF-I was prepared at two concentrations (1.5 mg/ml, and 0.5 mg/ml) so that with three injections per day two doses were given (a total of 450 μg/d or 150 μg/d). rhIGF-I was prepared at one concentration (1.5 mg/ml) so that with three injections per day one dose was given (450 μg/d). A fourth group of rats were given the excipient. The injections, each of 100 μl volume, were given at 7am, 1pm, and 7pm for 15 days without disrupting the controlled diurnal lighting of the vivarium room. Body weights were measured each day at 1 pm.
Blood samples were collected from non-fasted rats on the evening before the first day of dosing and on days 3, 7, and 10. Blood samples (400 μl) on days 3, 7, and 10 were taken by bleeding from a tail vein one hour after the mid-day injection. The blood was allowed to clot, and serum was separated and stored before analysis.
A glucose tolerance test was performed on day 14 of the study. Rats received their regular morning injection and then their food was withdrawn. After a 3-5-hour fast a blood sample (400 μl) was taken via the tail vein. Rats then received 2 g/kg dextrose(50%) by intraperitoneal (ip) injection. A blood sample (200 μl) was taken via tail vein at 10, 60, and 120 minutes after dextrose administration. Blood was allowed to clot and serum was separated and stored for measurement of glucose and insulin concentrations. After the glucose tolerance test was completed, animals were re-fed.
On day 15, one hour after the morning injection, rats were asphyxiated with carbon dioxide and bled by cardiac puncture. Blood was allowed to clot and serum was separated and frozen. Spleen, thymus, heart, liver, kidney, and perirenal fat were removed, blotted dry, and immediately weighed.
Statistical comparisons for each time point were made by an analysis of variance with a Duncan's Multiple Range test. A p value of <0.05 was considered as being statistically significant. All data are represented as the mean +SEM, with seven animals per treatment group.

Setting [2] is: Day one, 120 μg/day each by pump.
[3] abbreviates: Day 10, 150 μg three times a day.
The mark [4] stands for this setting: day 13, 150 μg three times a day SC.
[5] abbreviates: glucose tolerance test day 14, 150 μg tid.

As to (Leu^24,Ala^31)hIGF-I, in the assay on mouse 3T3 cells, the “^3H-thymidine incorporation” value is recorded as “no activity”. In the assay with dwarf rats (8 days), the “blood levels of endogenous rat IGF-I” value was “lower”; the epiphyseal plate widths result is on record as “increased the mean plate widths compared to the individual treatments, but these increases did not reach statistical significance”; the AST is listed as 143 ± 8 U/l; the BUN amounted to 17.8 ± 0.4 mg/dL. Also, in the assay on dwarf rats (8 days), the CK is recorded as 301 ± 44 u/l, the Creatinine is 0.23 ± 0.03 mg/dL, the Glucose is 174 ± 18 mg/dL and the Insulin was determined as 0.88 ± 0.09 ng/mL. In the assay with dwarf rats (8 days, 120 μg/day by pump), this substance had an absolute spleen weight of 350 ± 14 mg. The substance also registered a body weight gain in the assay with dwarf rats (setting [2]) of 0.5 ± 0.6 g. Besides, the “retroperitoneal fat depot weight” value with dwarf rats (120 μg/day each by pump) worked out at 0.53 ± 0.10 g. The same substance displayed a body weight gain with dwarf rats (day 6, 120 μg/day by pump) of 4.2 ± 0.6 g. Also, the “rise in blood glucose, percentage change from basal” value (“rise … percentage change from basal” for short) in assay [1] (Day 10, 50 μg three times a day) turned out to be 84±20%. In addition, in assay [1] (setting [3]), the “rise … percentage change from basal” value worked out at 74±22%. Moreover, in assay [1] (day 13, 50 μg three times a day SC), the body weight gain was 100 ± 2.1 g. The body weight gain in assay [1] (setting [4]) is 105.1 ± 2.3 g. Further, the “insulin in response to the glucose challenge” value (“insulin in response” below) in assay [1] (glucose tolerance test day 14, 50 μg tid) is 10.2 ± 0.7 ng/mL. In addition, in assay [1] (setting [5]), the “insulin in response” value came out at 10.6 ± 0.6 ng/mL. The “change in blood glucose two hours following the glucose challenge” value in assay [1] was determined as 59 ± 11 mg/dL.

As for “IGF-I: native-sequence recombinant human insulin-like growth factor-I (Genentech)”, in the assay on mouse 3T3 cells, the “^3H-thymidine incorporation” value was “increased thymidine incorporation in a dose-related manner”. In the assay with dwarf rats (8 days), the epiphyseal plate widths result was “significantly (p<0.05) increased”, the AST came to 128 ± 11 U/l, the BUN turned out to be 16.0 ± 0.7 mg/dL and the CK was 225 ± 18 u/l. In the assay with dwarf rats (8 days), this substance had a Creatinine of 0.22 ± 0.05 mg/dL, a Glucose of 190 ± 24 mg/dL and an Insulin of 0.54 ± 0.06 ng/mL. The substance also had a body weight gain with dwarf rats (setting [2]) of 1.2 ± 0.4 g. For the same substance, the “retroperitoneal fat depot weight” value in the assay on dwarf rats (120 μg/day each by pump) was 0.48 ± 0.06 g. For the same substance, the “rise … percentage change from basal” value in assay [1] (setting [3]) was found to be 25±10%. In addition, the body weight gain in assay [1] (setting [4]) was 114.5 ± 1.6 g. Also, the “insulin in response” value in assay [1] (setting [5]) came to 12.2 ± 0.7 ng/mL. Moreover, in assay [1], the “change in blood glucose two hours following the glucose challenge” value amounted to 39 ± 12 mg/dL.

For the origin of these results see patent US6632794B1, “Insulin-like growth factor agonist molecules” (Genentech, Inc., priority 1997, dated 2003).
